Test results reported in patent publication US12064426B2, “Selective inhibitors of ROCK1 and ROCK2 protein kinases and uses thereof” (GENOSCO Inc., priority 2021, dated 2024).

Columns and labels:
[1] = biological target: T1, Recombinant ROCK2 (amino acids 5-554) (Homo sapiens, UniProt O75116); assay: ROCK inhibition assay, LANCE Ultra TR-FRET kinase assay (ROCK2); type: biochemical; conditions: 4 μM ATP, 50 nM ULight-CREBtide substrate
T1 construct: ROCK2 (amino acids 5-554); by word order, ROCK2 from SignalChem
Outline: (§1)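 LANCE Ultra TR-FRET kinase assay with recombinant ROCK1 (aa 1-477) or ROCK2 (aa 5-554), 50 nM ULight-CREBtide and ATP at 1 μM (ROCK1) or 4 μM (ROCK2) in HEPES pH 7.5 with MgCl2, 1 h at room temperature. EDTA stop with Eu anti-phospho-CREB Ser133 antibody; 665/615 nm read gives IC50.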

[2] = biological target: T2, Recombinant ROCK1 (amino acids 1-477) (Homo sapiens, UniProt Q13464); assay: ROCK inhibition assay, LANCE Ultra TR-FRET kinase assay (ROCK1); type: biochemical; conditions: 1 μM ATP, 50 nM ULight-CREBtide substrate
T2 construct: Recombinant ROCK1 (amino acids 1-477); by word order, ROCK1 from Carna Biosciences
Outline: as §1

T1 sequence (O75116 5-554): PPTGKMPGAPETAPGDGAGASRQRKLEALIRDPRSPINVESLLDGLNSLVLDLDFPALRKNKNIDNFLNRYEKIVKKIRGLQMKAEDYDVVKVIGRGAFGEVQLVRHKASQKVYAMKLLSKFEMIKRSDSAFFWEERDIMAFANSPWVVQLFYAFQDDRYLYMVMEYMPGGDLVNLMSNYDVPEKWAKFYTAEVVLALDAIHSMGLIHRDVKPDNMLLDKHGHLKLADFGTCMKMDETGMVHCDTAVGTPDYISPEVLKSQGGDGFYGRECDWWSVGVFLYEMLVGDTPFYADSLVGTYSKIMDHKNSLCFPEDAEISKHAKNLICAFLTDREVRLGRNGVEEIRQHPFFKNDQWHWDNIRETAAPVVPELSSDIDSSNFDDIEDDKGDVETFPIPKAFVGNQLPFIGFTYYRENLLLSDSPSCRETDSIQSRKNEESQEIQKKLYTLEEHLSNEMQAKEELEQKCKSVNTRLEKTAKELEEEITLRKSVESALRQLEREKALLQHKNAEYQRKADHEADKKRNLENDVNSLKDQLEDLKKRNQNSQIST
T2 sequence (Q13464 1-477): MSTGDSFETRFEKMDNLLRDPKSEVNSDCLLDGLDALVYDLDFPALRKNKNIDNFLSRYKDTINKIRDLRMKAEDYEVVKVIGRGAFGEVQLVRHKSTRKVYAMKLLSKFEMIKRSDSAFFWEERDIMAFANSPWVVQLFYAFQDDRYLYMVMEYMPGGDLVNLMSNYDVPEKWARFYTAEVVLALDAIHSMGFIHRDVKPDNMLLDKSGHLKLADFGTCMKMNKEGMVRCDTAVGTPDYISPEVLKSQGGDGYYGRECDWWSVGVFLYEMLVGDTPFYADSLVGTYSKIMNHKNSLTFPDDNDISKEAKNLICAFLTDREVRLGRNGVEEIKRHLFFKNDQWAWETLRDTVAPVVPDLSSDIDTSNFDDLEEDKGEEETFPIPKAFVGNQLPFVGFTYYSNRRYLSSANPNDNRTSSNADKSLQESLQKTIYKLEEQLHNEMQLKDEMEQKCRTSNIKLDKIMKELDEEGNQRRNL

Structure (SMILES)	IC50 [1] [nM]	IC50 [2] [nM]
Cn1nccc1-c1ccc2c(=O)n(Cc3cccc(C(=O)NCC4CCNCC4)c3)ccc2c1 [Compound 169]	< 10	< 10
Cn1nccc1-c1ccc2c(=O)n(Cc3cccc(C(=O)NCC4CCN(CC(F)F)CC4)c3)ccc2c1 [Compound 170]	< 10	11 to 100
CN1CCC(CNC(=O)c2cccc(Cn3ccc4cc(-c5ccnn5C)ccc4c3=O)c2)CC1 [Compound 171]	< 10	11 to 100
CN1CCC(CNC(=O)c2cc(F)cc(Cn3ccc4cc(-c5ccnn5C)ccc4c3=O)c2)CC1 [Compound 172]	< 10	11 to 100
Cn1nccc1-c1ccc2c(=O)n(Cc3cc(F)cc(C(=O)NCc4ccc(F)nc4)c3)ccc2c1 [Compound 174]	< 10	11 to 100
CC(C)N1CCC(NC(=O)c2cc(F)cc(Cn3ccc4cc(-c5ccnn5C)ccc4c3=O)c2)CC1 [Compound 175]	10 to 100	101 to 500
CN1CCC(NC(=O)c2cc(F)cc(Cn3ccc4cc(-c5ccnn5C)ccc4c3=O)c2)CC1 [Compound 176]	10 to 100	11 to 100
Cn1nccc1-c1ccc2c(=O)n(Cc3cc(F)cc(C(=O)NC4CCNCC4)c3)ccc2c1 [Compound 177]	< 10	11 to 100
Nc1cc(-c2ccc3c(=O)n(Cc4cccc(C(=O)NCc5ccccc5)c4)ccc3c2)ccn1 [Compound 181]	10 to 100	101 to 500
Nc1cc(-c2ccc3c(=O)n(Cc4cccc(C(=O)NCc5ccc6ccccc6c5)c4)ccc3c2)ccn1 [Compound 182]	100 to 500	> 501
NCc1ccccc1CNC(=O)c1cccc(Cn2ccc3cc(-c4ccnc(N)c4)ccc3c2=O)c1 [Compound 183]	10 to 100	101 to 500
Nc1cc(-c2ccc3c(=O)n(Cc4cccc(C(=O)Nc5ccc6c(c5)CNCC6)c4)ccc3c2)ccn1 [Compound 187]	< 10	11 to 100
Nc1cc(-c2ccc3c(=O)n(Cc4cccc(C(=O)N[C@H]5CC[C@@H](O)CC5)c4)ccc3c2)ccn1 [Compound 192]	10 to 100	11 to 100
Nc1cc(-c2ccc3c(=O)n(Cc4cccc(C(=O)N[C@H]5CC[C@H](O)CC5)c4)ccc3c2)ccn1 [Compound 193]	10 to 100	101 to 500
Nc1cc(-c2ccc3c(=O)n(Cc4cccc(C(=O)NC5CCCC5)c4)ccc3c2)ccn1 [Compound 198]	100 to 500	> 501
Cn1ccc(NC(=O)c2cc(F)cc(Cn3ccc4cc(-c5ccnc(N)c5)ccc4c3=O)c2)n1 [Compound 201]	< 10	11 to 100
Nc1cc(-c2ccc3c(=O)n(Cc4cccc(C(=O)Nc5ccno5)c4)ccc3c2)ccn1 [Compound 203]	100 to 500	> 501
Nc1cc(-c2ccc3c(=O)n(Cc4cccc(C(=O)Nc5ccon5)c4)ccc3c2)ccn1 [Compound 204]	100 to 500	> 501
Nc1cc(-c2ccc3c(=O)n(Cc4cc(F)cc(C(=O)Nc5ccon5)c4)ccc3c2)ccn1 [Compound 205]	100 to 500	> 501
O=C(Nc1ccno1)c1cccc(Cn2ccc3cc(N4CCOCC4)ccc3c2=O)c1 [Compound 206]	> 500	> 501
O=C(NC1COC1)c1cccc(Cn2ccc3cc(N4CCOCC4)ccc3c2=O)c1 [Compound 207]	100 to 500	11 to 100
O=C(N[C@H]1CC[C@@H](O)CC1)c1cccc(Cn2ccc3cc(N4CCOCC4)ccc3c2=O)c1 [Compound 214]	100 to 500	> 501
O=C(NCC1CCNCC1)c1cccc(Cn2ccc3cc(N4CCOCC4)ccc3c2=O)c1 [Compound 217]	10 to 100	101 to 500
O=C(NCC1CCN(CC(F)(F)F)CC1)c1cccc(Cn2ccc3cc(N4CCOCC4)ccc3c2=O)c1 [Compound 220]	10 to 100	101 to 500
O=C(NCC1CCN(CC(F)(F)F)CC1)c1cc(F)cc(Cn2ccc3cc(N4CCOCC4)ccc3c2=O)c1 [Compound 221]	10 to 100	101 to 500
CC(C)N1CCC(CNC(=O)c2cccc(Cn3ccc4cc(N5CCOCC5)ccc4c3=O)c2)CC1 [Compound 223]	10 to 100	101 to 500
O=C(NCC1CCN(C2COC2)CC1)c1cccc(Cn2ccc3cc(N4CCOCC4)ccc3c2=O)c1 [Compound 227]	10 to 100	101 to 500
O=C(NCC1CCN(C2COC2)CC1)c1cc(F)cc(Cn2ccc3cc(N4CCOCC4)ccc3c2=O)c1 [Compound 228]	10 to 100	101 to 500
O=C(NCCN1CCOCC1)c1cc(F)cc(Cn2ccc3cc(N4CCOCC4)ccc3c2=O)c1 [Compound 229]	10 to 100	11 to 100
[2H]C([2H])([2H])NC(=O)c1cccc(Cn2ccc3cc(-c4cc[nH]c4C)ncc3c2=O)c1 [Compound 232]	< 10	11 to 100

The remaining lines, values ahead:

IC50 [1] [nM]	IC50 [2] [nM]	Structure (SMILES)
< 10	11 to 100	Cn1nccc1-c1ccc2c(=O)n(Cc3cccc(C(=O)NCC4CC(O)C4)c3)ccc2c1 (stereo not shown) [Compound 167]
< 10	< 10	CN1CC(CNC(=O)c2cccc(Cn3ccc4cc(-c5ccnn5C)ccc4c3=O)c2)C1 [Compound 168]
< 10	11 to 100	Cn1nccc1-c1ccc2c(=O)n(Cc3cc(F)cc(C(=O)NCC4CCNCC4)c3)ccc2c1 [Compound 173]
< 10	11 to 100	Cn1ccc(NC(=O)c2cc(F)cc(Cn3ccc4cc(-c5ccnn5C)ccc4c3=O)c2)n1 [Compound 179]
10 to 100	101 to 500	Nc1cc(-c2ccc3c(=O)n(Cc4cccc(C(=O)NCCc5ccccc5)c4)ccc3c2)ccn1 [Compound 185]
< 10	< 10	CN1CCc2cc(NC(=O)c3cccc(Cn4ccc5cc(-c6ccnc(N)c6)ccc5c4=O)c3)ccc2C1 [Compound 189]
< 10	< 10	Nc1cc(-c2ccc3c(=O)n(Cc4cccc(C(=O)Nc5nc6c(s5)CNCC6)c4)ccc3c2)ccn1 [Compound 190]
10 to 100	101 to 500	Nc1cc(-c2ccc3c(=O)n(Cc4cccc(C(=O)NC5CCOCC5)c4)ccc3c2)ccn1 [Compound 194]
10 to 100	101 to 500	Nc1cc(-c2ccc3c(=O)n(Cc4cccc(C(=O)NC5COC5)c4)ccc3c2)ccn1 [Compound 195]
10 to 100	101 to 500	Nc1cc(-c2ccc3c(=O)n(Cc4cccc(C(=O)Nc5ccc6c(c5)CCOC6)c4)ccc3c2)ccn1 [Compound 196]
10 to 100	11 to 100	Nc1cc(-c2ccc3c(=O)n(Cc4cccc(C(=O)Nc5ccc6c(c5)COCC6)c4)ccc3c2)ccn1 [Compound 197]
100 to 500	> 501	Nc1cc(-c2ccc3c(=O)n(Cc4cccc(C(=O)Nc5ncc[nH]5)c4)ccc3c2)ccn1 [Compound 199]
100 to 500	> 501	Nc1cc(-c2ccc3c(=O)n(Cc4cc(F)cc(C(=O)NC5COC5)c4)ccc3c2)ccn1 [Compound 202]
100 to 500	> 501	O=C(NC1COC1)c1cc(F)cc(Cn2ccc3cc(N4CCOCC4)ccc3c2=O)c1 [Compound 208]
100 to 500	> 501	O=C(N[C@H]1C[C@@H](O)C1)c1cc(F)cc(Cn2ccc3cc(N4CCOCC4)ccc3c2=O)c1 [Compound 209]
100 to 500	> 501	O=C(N[C@H]1C[C@H](O)C1)c1cc(F)cc(Cn2ccc3cc(N4CCOCC4)ccc3c2=O)c1 [Compound 210]
100 to 500	> 501	O=C(NC1CCOCC1)c1cc(F)cc(Cn2ccc3cc(N4CCOCC4)ccc3c2=O)c1 [Compound 211]
100 to 500	> 501	O=C(NC1CCOCC1)c1cccc(Cn2ccc3cc(N4CCOCC4)ccc3c2=O)c1 [Compound 212]
100 to 500	> 501	O=C(N[C@H]1CC[C@H](O)CC1)c1cccc(Cn2ccc3cc(N4CCOCC4)ccc3c2=O)c1 [Compound 213]
100 to 500	> 501	O=C(N[C@H]1CC[C@@H](O)CC1)c1cc(F)cc(Cn2ccc3cc(N4CCOCC4)ccc3c2=O)c1 [Compound 215]
100 to 500	101 to 500	O=C(NCCN1CCOCC1)c1cccc(Cn2ccc3cc(N4CCOCC4)ccc3c2=O)c1 [Compound 216]
10 to 100	101 to 500	CN1CCC(CNC(=O)c2cccc(Cn3ccc4cc(N5CCOCC5)ccc4c3=O)c2)CC1 [Compound 218]
10 to 100	101 to 500	O=C(NCC1CCN(CC(F)F)CC1)c1cccc(Cn2ccc3cc(N4CCOCC4)ccc3c2=O)c1 [Compound 219]
10 to 100	101 to 500	CN1CCC(CNC(=O)c2cc(F)cc(Cn3ccc4cc(N5CCOCC5)ccc4c3=O)c2)CC1 [Compound 222]
10 to 100	101 to 500	CC(C)N1CCC(CNC(=O)c2cc(F)cc(Cn3ccc4cc(N5CCOCC5)ccc4c3=O)c2)CC1 [Compound 224]
10 to 100	101 to 500	O=C(NCC1CCN(C2CC2)CC1)c1cccc(Cn2ccc3cc(N4CCOCC4)ccc3c2=O)c1 [Compound 225]
10 to 100	101 to 500	O=C(NCC1CCN(C2CC2)CC1)c1cc(F)cc(Cn2ccc3cc(N4CCOCC4)ccc3c2=O)c1 [Compound 226]
10 to 100	11 to 100	O=C(NCCN1CCOCC1)c1cccc(Cn2ccc3cc(N4CCOCC4)ccc3c2=O)c1 [Compound 230]
< 10	11 to 100	CNC(=O)c1cccc(Cn2ccc3cc(-c4cc[nH]c4C)ncc3c2=O)c1 [Compound 231, N-methyl-3-((6-(2-methyl-1H-pyrrol-3-yl)-1-oxo-2,7-naphthyridin-2(1H)-yl)methyl)benzamide]
